Test results taken from patent US10413545B2, “Imidazolin-5-one derivative useful as FASN inhibitors for the treatment of cancer” (Janssen Pharmaceutica NV, priority 2013, dated 2019).
Read-outs that look alike come from different tables or passages of the source.

What was measured:
A2780 ovarian cells = test: A2780 Ovarian Cell Proliferation Assay in Lipid Reduced Medium, with and without Palmitate (MTT); type: cell-based; conditions: Homo sapiens, 10% lipid-reduced serum, 96 h
Procedure: The biological assays described below correspond to comparative assays for ovarian cell proliferation.
2500 cells were seeded in a 96-well clear well plate in 200 μL RPM11640 with 10% Fetal Calf Serum (Hyclone), and incubated at 37° C., 5% CO2, Blanks were wells without cells. The next day the culture medium was aspirated and replaced by 160 μL culture medium with 10% Lipid-Reduced Serum (LRS, Hyclone). […] After 96 h incubation, an MTT assay was performed.
2500 cells were seeded in a 96-well clear well plate in 200 μL RPM11640 with 10% Fetal Calf Serum (Hyclone), and incubated at 37° C., 5% CO2. Blanks were wells without cells. The next day the culture medium was aspirated and replaced by 160 μL culture medium with 10% Lipid-Reduced Serum (LRS, Hyclone). 20 μL test compound (at concentrations of 30 μM, 10 μM, 3 μM, 1 μM, 0.30 μM, 0.10 μM, 0.03 μM and 0.01 μM)/DMSO dilution followed by 20 μL ethanol-BSA solution were added to a final concentrations of 0.2% DMSO, 0.2% fatty-acid-free BSA, 0.25% ethanol. After 96 h incubation an MTT assay was performed.
Raw data generated by the instrument were normalized to % Controlmin values, which were calculated as: % Controlmin=100*(x−mLC)/(mHC−mLC)
where mLC and mHC were the means of the low control wells and high control wells on the plate, after manual exclusion of outliers. A plot of Controlmin versus test compound concentration was fitted to a 4-parameter logistic curve using a non-linear least squares regression method.

[1] = tested on: PC-3M-Luc-C6 prostate cells; test: In Vitro PC-3M-Luc-C6 Prostate Cell Proliferation Assay in Lipid Reduced Medium; type: cell-based; conditions: Prostate cell, read-out: pIC50 PC-3M-Luc-C6 prostate cell (converted); 10% lipid reduced serum, 96 h, ATP-glow luminescence
Procedure: PC-3M-Luc-C6 prostate cells were obtained from Xenogen Corporation. Cells were maintained in MEM supplemented with 10% Fetal Calf Serum (FCS, Hyclone), 2 mM glutamine, 1 mM sodium pyruvate, 1% BME vitamins (available from for example, Sigma Aldrich), 0.1 mM non Essential Amino Acid and 50 μg/ml Gentamicin. The cells were passaged twice a week.
The next day 10 μl test compound/DMSO diluted in medium was added (3E-5M, 1E-5M, 3E-6M,1E-6M, 3E-7M, 1E-7M, 3E-8M, 1E-8M final concentration). Compounds were tested in duplicate. After 96 h incubation at 37° C., 5% CO2 25 μl ATP-glow mix was added. The plate was incubated for 30 min at 37° C. and luminescence was measured with the Envision.
Analysis: Determination of pIC50 Values
pIC50 values were calculated as follows. Raw data generated by the instruments were normalized to % Controlmin values, which were calculated as: % Controlmin=100*(x−mLC)/(mHC−mLC),
where mLC and mHC are the means of the low control wells and high control wells on the plate, after manual exclusion of outliers. The relation between the % Controlmin values and concentration was fitted to a 4-parameter logistic curve using a non-linear least squares regression method to determine the pIC50 value. Outlying data points were excluded manually to get a correct fit. The pIC50 corresponds to −log 10(IC50), if the IC50 is expressed in molar units (http://www.ncbi.nlm.nih.qovibooks/NBK91994). The IC50 parameter was always determined by non-linear regression, but one or more of the other parameters may have been held fixed on a relevant input value, such as 0 for the bottom values.

[2] = 25 μM palmitate added (control), read-out: pIC50 With Palmitate (converted)
[3] = no palmitate, read-out: pIC50 Without Palmitate (converted)

Compound	IC50 (A2780 ovarian cells; [2])	IC50 (A2780 ovarian cells; [3])	IC50 [1]
Cn1ncc2cc(-c3ccc(C4=NC(C)(C)C(=O)N4C[C@@H]4CCN(C(=O)C5CC5)C4)cc3)ccc21 [Compound 2, (R)-1-((1-(cyclopropanecarbonyl)pyrrolidin-3-yl)methyl)-4,4-dimethyl-2-(4-(1-methyl-1H-indazol-5-yl)phenyl)-1H-imidazol-5(4H)-one]	> 10 µM	0.525 µM	
CC1(C)N=C(c2ccc(-c3ccc4occc4c3)cc2)N(C[C@@H]2CCN(C(=O)C3CC3)C2)C1=O [Compound 3, (R)-2-(4-(benzofuran-5-yl)phenyl)-1-((1-(cyclopropanecarbonyl)pyrrolidin-3-yl)methyl)-4,4-dimethyl-1H-imidazol-5(4H)-one]	> 10 µM	1.48 µM	
CC1(C)N=C(c2ccc(-c3nc4ccccc4s3)cc2)N(C[C@@H]2CCN(C(=O)C3CC3)C2)C1=O [Compound 13, (R)-2-(4-(benzo[d]thiazol-2-yl)phenyl)-1-((1-(cyclopropanecarbonyl)pyrrolidin-3-yl)methyl)-4,4-dimethyl-1H-imidazol-5(4H)-one]	> 10 µM	3.39 µM	2.09 µM
CC1(C(=O)N2CC[C@@H](CN3C(=O)C(C)(C)N=C3c3ccc(-c4ccc5cc(F)ccc5c4)cc3F)C2)CC1 [Compound 75, (R)-2-(2-fluoro-4-(6-fluoronaphthalen-2-yl)phenyl)-4,4-dimethyl-1-((1-(1-methylcyclopropanecarbonyl)pyrrolidin-3-yl)methyl)-1H-imidazol-5(4H)-one]	3.31 µM	0.011 µM	
Cn1ncc2cc(-c3ccc(C4=NC(C)(C)C(=O)N4C[C@@H]4CCN(C(=O)C5(O)CC5)C4)c(F)c3)ccc21 [Compound 76, (R)-2-(2-fluoro-4-(1-methyl-1H-indazol-5-yl)phenyl)-1((1-(1-hydroxycyclopropanecarbonyl)pyrrolidin-3-yl)methyl)-4,4-dimethyl-1H-imidazol-5(4H)-one]	> 10 µM	0.0234 µM	
Cc1cc(-c2ccc3c(c2)ncn3C)ccc1C1=NC(C)(C)C(=O)N1CC1CN(C(=O)C2(O)CC2)C1 [Compound 91, 1-((1-(1-hydroxycyclopropanecarbonyl)azetidin-3-yl)methyl)-4,4-dimethyl-2-(2-methyl-4-(1-methyl-1H-benzo[d]imidazol-5-yl)phenyl)-1H-imidazol-5(4H)-one]	> 10 µM	0.129 µM	
Cc1cc(-c2ccc3c(c2)ncn3C)ccc1C1=NC(C)(C)C(=O)N1C[C@@H]1CCN(C(=O)C2(O)CC2)C1 [Compound 92, (R)-1-((1-(1-hydroxycyclopropanecarbonyl)pyrrolidin-3-yl)methyl)-4,4-dimethyl-2-(2-methyl-4-(1-methyl-1H-benzo[d]imidazol-5-yl)phenyl)-1H-imidazol-5(4H)-one]	> 10 µM	~0.0055 µM	
Cn1cnc2cc(-c3ccc(C4=NC(C)(C)C(=O)N4CC4CN(C(=O)C5(C)CC5)C4)c(F)c3)ccc21 [Compound 93, 2-(2-fluoro-4-(1-methyl-1H-benzo[d]imidazol-5-yl)phenyl)-4,4-dimethyl-1-((1-(1-methylcyclopropanecarbonyl)azetidin-3-yl)methyl)-1H-imidazol-5(4H)-one]	> 10 µM	0.0309 µM	
Cn1cnc2cc(-c3ccc(C4=NC(C)(C)C(=O)N4CC4CN(C(=O)C5(O)CC5)C4)c(F)c3)ccc21 [Compound 94, 2-(2-fluoro-4-(1-methyl-1H-benzo[d]imidazol-5-yl)phenyl)-1-((1-(1-hydroxycyclopropanecarbonyl)azetidin-3-yl)methyl)-4,4-dimethyl-1H-imidazol-5(4H)-one]	> 10 µM	0.1 µM	
Cn1cc(-c2ccc(-c3ccc(C4=NC(C)(C)C(=O)N4C[C@@H]4CCN(C(=O)C5(O)CC5)C4)c(F)c3)cc2)cn1 [Compound 95, (R)-2-(3-fluoro-4′-(1-methyl-1H-pyrazol-4-yl)-[1,1′-biphenyl]-4-yl)-1-((1-(1-hydroxycyclopropanecarbonyl)pyrrolidin-3-yl)methyl)-4,4-dimethyl-1H-imidazol-6(4H)-one]	> 10 µM	~0.00537 µM	
CC1(C)N=C(c2ccc(-c3ccc4ncccc4c3)cc2)N(CC2CN(C(=O)C3CC3)C2)C1=O [Compound 98, 1-((1-(cyclopropanecarbonyl)azetidin-3-yl)methyl)-4,4-dimethyl-2-(4-(quinolin-6-yl)phenyl)-1H-imidazol-5(4H)-one]	> 10 µM	> 10 µM	
CC1(C)N=C(c2ccc(-c3n[nH]c4ccccc34)cc2)N(CC2CN(C(=O)C3CC3)C2)C1=O [Compound 99, 2-(4-(1H-indazol-3-yl)phenyl)-1-((1-(cyclopropanecarbonyl)azetidin-3-yl)methyl)-4,4-dimethyl-1H-imidazol-5(4H)-one]	> 10 µM	> 10 µM	

More lines, now with the values ahead:

IC50 (A2780 ovarian cells; [2])	IC50 (A2780 ovarian cells; [3])	IC50 [1]	Compound
> 10 µM	0.0741 µM		CC1(C)N=C(c2ccc(-c3ccc4[nH]ccc4c3)cc2)N(C[C@@H]2CCN(C(=O)C3CC3)C2)C1=O [Compound 1, (R)-2-(4-(1H-Indol-5-yl)phenyl)-1-((1-(cyclopropanecarbonyl)pyrrolidin-3-yl)methyl)-4,4-dimethyl-1H-imidazol-5(4H)-one]
> 10 µM	2.75 µM		CC1(C)N=C(c2ccc(-c3ccc4occc4c3)cc2)N(C[C@@H]2CCN(C(=O)C3(F)CC3)C2)C1=O [Compound 4, (R)-2-(4-(benzofuran-5-yl)phenyl)-1-((1-(1-fluorocyclopropanecarbonyl)pyrrolidin-3-yl)methyl)-4,4-dimethyl-1H-imidazol-5(4H)-one]
> 10 µM	4.47 µM		CC1(C)N=C(c2ccc(-c3ccc4ncccc4c3)cc2)N(C[C@@H]2CCN(C(=O)C3CC3)C2)C1=O [Compound 64, (R)-1-((1-(cyclopropanecarbonyl)pyrrolidin-3-yl)methyl)-4,4-dimethyl-2-(4-(quinolin-6-yl)phenyl)-1H-imidazol-5(4H)-one]
> 10 µM	0.123 µM	0.0708 µM	CC1(C)N=C(c2ccc(-c3ccc4cc(F)ccc4c3)cc2F)N(CC2CN(C(=O)C3(O)CC3)C2)C1=O [Compound 79, 2-(2-fluoro-4-(6-fluoronaphthalen-2-yl)phenyl)-1-((1-(1-hydroxycyclopropanecarbonyl)azetidin-3-yl)methyl)-4,4-dimethyl-1H-imidazol-5(4H)-one]
> 10 µM	~0.0148 µM		CC1(C)N=C(c2ccc(-c3ccc4cc(F)ccc4c3)cc2F)N(C[C@@H]2CCN(C(=O)C3(O)CC3)C2)C1=O [Compound 88, (R)-2-(2-fluoro-4-(6-fluoronaphthalen-2-yl)phenyl)-1-((1-(1-hydroxycyclopropanecarbonyl)pyrrolidin-3-yl)methyl)-4,4-dimethyl-1H-imidazol-5(4H)-one]
> 10 µM	0.00676 µM		Cn1cnc2cc(-c3ccc(C4=NC(C)(C)C(=O)N4C[C@@H]4CCN(C(=O)C5(O)CC5)C4)c(F)c3)ccc21 [Compound 89, (R)-2-(2-fluoro-4-(1-methyl-1H-benzo[d]imidazol-5-yl)phenyl)-1-((1-(1-hydroxycyclopropanecarbonyl)pyrrolidin-3-yl)methyl)-4,4-dimethyl-1H-imidazol-5(4H)-one]
> 10 µM	~0.00295 µM		Cn1cnc2cc(-c3ccc(C4=NC(C)(C)C(=O)N4C[C@@H]4CCN(C(=O)C5(C)CC5)C4)c(F)c3)ccc21 [Compound 90, (R)-2-(2-fluoro-4-(1-methyl-1H-benzo[d]imidazol-5-yl)phenyl)-4,4-dimethyl-1-((1-(1-methylcyclopropanecarbonyl)pyrrolidin-3-yl)methyl)-1H-imidazol-5(4H)-one]
> 10 µM	~0.0224 µM		Cc1cc(-c2ccc3cc(C#N)ccc3c2)ccc1C1=NC(C)(C)C(=O)N1CC1CN(C(=O)C2CC2)C1 [Compound 96, 6-(4-(1-((1-(cyclopropanecarbonyl)azetidin-3-yl)methyl)-4,4-dimethyl-5-oxo-4,5-dihydro-1H-imidazol-2-yl)-3-methylphenyl)-2-naphthonitrile]
